“Also recorded” adds a separate entry of the source. Like-named read-outs stand apart in the source and are kept apart here.

For one experiment, the target named is HL-60 MPO (Homo sapiens (Human), UniProt P05164). Put plainly: HL-60 MPO inhibition, drugs treated to media. Type of experiment: cell-based. The procedure:
The screening of compounds for MPO inhibition activity was conducted in three stages.

The target of a further experiment is Human MPO (Homo sapiens (Human), UniProt P05164). Put plainly: Myeloperoxidase (MPO) inhibition IC50 screening. Format: biochemical. The source says:
To discover new therapeutics for the treatment of Graves' disease, the inventors screened compounds for inhibition activity against myeloperoxidase (MPO). The screening process is schematically represented in FIG. 1. Use was made of approximately 7,000 compounds for the screening.

Another experiment concerns the target thyroid peroxidase (TPO) (Homo sapiens (Human), UniProt P07202). Briefly: Thyroid peroxidase (TPO) inhibition IC50. Format: biochemical. Particulars: Table 3.
Experiment [1] relates to Graves' disease-induced mice. Put plainly: Serum thyroxine (T4) in Graves' disease-induced (Ad-TSHR) mice. Format: in vivo, BALB/c mice. Particulars: 10 mg/kg daily for three weeks, abdominal cavity, FIG. 8. The procedure: (§1) To create a mouse model with induced Graves' disease, 6-week-old female BALB/c mice were used. The thyroid stimulating hormone receptor (TSHR) expressing adenovirus, Ad-TSHR, was purchased from VectorBuilder (Chicago, USA, www.vectorbuilder.com). […] The virus was injected three times at three-week intervals, totaling nine weeks of injections to induce overexpression of TSHR and thereby cause Graves' disease.
(§2) In the Graves' disease-induced mouse model established in <3-1>, the therapeutic effectiveness of the imidazopyridine scaffold-bearing compounds screened in the present disclosure was evaluated.
(§3) After extracting the thyroid glands from each mouse, the sizes of the thyroids were visually compared, and the concentration of thyroxine (T4) in the blood was analyzed.
After administering drugs for three weeks to mice in which Graves' disease was induced by the Ad-TSHR virus over nine weeks, the serum was isolated to measure the concentration of thyroxine (T4).

The subject of experiment [2] is TPO (thyroid peroxidase) expression. Briefly: Inhibition of TPO expression in SNU760 cells. Particulars: 50 uM, SNU760 Human Thyroid cell lines, FIG. 2. Format: cell-based. The procedure:
(§4) To confirm whether the imidazopyridine scaffold-bearing compounds screened in Example 1 could be used as treatments for Graves' disease, SNU760 Human Thyroid cell lines were treated with various concentrations of each compound and then analyzed their ability to inhibit the expression of TPO (thyroid peroxidase) and TG (thyroglobulin).

The subject of experiment [3] is Graves' disease-induced mice. Put plainly: Thyroid size in Graves' disease-induced (Ad-TSHR) mice. Format: in vivo, BALB/c mice. Particulars: 10 mg/kg daily for three weeks, abdominal cavity, vs Ad-TSHR group, FIG. 7. The procedure: as §1, §2, §3
Experiment [4] deals with TG (thyroglobulin) expression. Put plainly: Inhibition of TG expression in SNU760 cells. Type of experiment: cell-based. Particulars: 50 uM, SNU760 Human Thyroid cell lines, FIG. 2. The procedure:
as §4

Chain of Human MPO (P05164 49-745): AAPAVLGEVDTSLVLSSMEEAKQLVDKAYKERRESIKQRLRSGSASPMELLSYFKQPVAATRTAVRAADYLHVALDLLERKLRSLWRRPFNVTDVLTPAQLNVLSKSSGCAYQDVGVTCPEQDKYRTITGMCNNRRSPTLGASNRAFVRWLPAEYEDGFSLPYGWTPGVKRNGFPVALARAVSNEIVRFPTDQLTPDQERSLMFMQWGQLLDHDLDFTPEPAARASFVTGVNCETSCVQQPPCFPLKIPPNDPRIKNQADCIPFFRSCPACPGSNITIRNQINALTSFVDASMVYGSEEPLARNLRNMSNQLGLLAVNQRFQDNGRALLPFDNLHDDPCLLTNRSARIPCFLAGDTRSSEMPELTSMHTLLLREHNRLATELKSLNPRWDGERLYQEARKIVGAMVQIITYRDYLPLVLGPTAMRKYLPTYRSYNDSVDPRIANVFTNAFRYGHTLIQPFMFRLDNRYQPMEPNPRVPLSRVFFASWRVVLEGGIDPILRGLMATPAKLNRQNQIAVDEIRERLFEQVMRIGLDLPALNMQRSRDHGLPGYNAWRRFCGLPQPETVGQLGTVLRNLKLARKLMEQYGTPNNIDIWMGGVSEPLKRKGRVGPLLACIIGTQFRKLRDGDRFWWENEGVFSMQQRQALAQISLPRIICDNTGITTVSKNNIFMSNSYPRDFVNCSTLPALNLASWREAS
Chain of HL-60 MPO (P05164 49-745): as above
Chain of thyroid peroxidase (TPO) (P07202 19-933, species assumed): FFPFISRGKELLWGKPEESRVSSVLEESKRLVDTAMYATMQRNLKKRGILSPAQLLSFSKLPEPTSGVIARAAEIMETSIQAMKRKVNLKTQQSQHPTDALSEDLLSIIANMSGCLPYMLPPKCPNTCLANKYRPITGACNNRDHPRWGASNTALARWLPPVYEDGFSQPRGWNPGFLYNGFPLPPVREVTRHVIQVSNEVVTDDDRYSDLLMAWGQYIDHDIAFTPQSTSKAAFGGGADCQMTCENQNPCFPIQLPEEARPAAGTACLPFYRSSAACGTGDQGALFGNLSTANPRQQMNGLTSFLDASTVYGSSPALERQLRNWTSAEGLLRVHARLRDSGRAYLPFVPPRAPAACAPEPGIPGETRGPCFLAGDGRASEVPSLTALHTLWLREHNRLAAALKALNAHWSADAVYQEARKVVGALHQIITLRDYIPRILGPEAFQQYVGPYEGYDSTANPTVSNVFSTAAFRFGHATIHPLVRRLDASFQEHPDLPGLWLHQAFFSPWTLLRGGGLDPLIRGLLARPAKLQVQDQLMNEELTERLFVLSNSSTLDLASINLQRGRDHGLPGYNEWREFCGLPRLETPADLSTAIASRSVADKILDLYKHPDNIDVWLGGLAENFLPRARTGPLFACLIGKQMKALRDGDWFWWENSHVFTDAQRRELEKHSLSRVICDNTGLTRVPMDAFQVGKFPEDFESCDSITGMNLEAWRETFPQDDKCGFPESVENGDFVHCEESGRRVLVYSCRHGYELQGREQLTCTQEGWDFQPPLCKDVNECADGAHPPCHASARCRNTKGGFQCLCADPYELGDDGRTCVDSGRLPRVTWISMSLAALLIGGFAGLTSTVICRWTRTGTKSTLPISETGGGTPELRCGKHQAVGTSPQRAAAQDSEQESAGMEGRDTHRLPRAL

The term inhibition denotes the relative decrease from the control value, in per cent. One may read the IC50 as the point on the concentration scale where inhibition reaches its midpoint. Take `CC(C)OCCn1c(=S)[nH]c(=O)c2[nH]ccc21` [AZD3241]: the “HL-60 MPO Inhibition (%) (treat to media)” value at HL-60 MPO (2nd Screening) is on record as 0%. Also, on HL-60 MPO (HL-60, 3rd Screening, 25 uM, read-out: HL-60 MPO Inhibition (%) (25 uM of Drugs are treated to media)), the inhibition at 25 µM came to 0%. Also, the IC50 on Human MPO (Chemical Library 2nd Screening, MPO, read-out: IC50) was found to be 0.021 µM; at Human MPO (Chemical Library 3rd Screening, read-out: IC50 (uM) (Human MPO)) it was 0.021 µM.

In turn, `COc1ccc(-c2nc3cc(C)ccn3c2Nc2ccc3c(c2)OCO3)cc1` [NE-2-7, N-(2H-1,3-BENZODIOXOL-5- YL)-2-(4-METHOXYPHENYL)-7- METHYLIMIDAZO[1,2- A]PYRIDIN-3-AMINE] came in with an IC50 against thyroid peroxidase (TPO) of 0.02 µM.

For `Cc1ccc2nc(-c3cccnc3)c(Nc3ccc4c(c3)OCO4)n2c1` [NE-2-6, N-(2H-1,3-BENZODIOXOL-5-YL)-6-METHYL-2-(PYRIDIN-3-YL) IMIDAZO [1,2-A]PYRIDIN-3-AMINE], the “serum thyroxine (T4) concentration” value in experiment [1] is “significant reduction; also recorded: more effective”. Besides, the “inhibition of the expression of TPO” value in experiment [2] is ~100%. Moreover, in experiment [3], the “thyroid size (visually compared)” value is “effectively reduced thyroid sizes; also recorded: nearly restored to normal levels”. Moreover, the “inhibition of the expression of TG” value in experiment [4] is on record as ~100%.

Values taken from US20240408072A1, “COMPOSITION FOR PREVENTING OR TREATING GRAVES' DISEASE COMPRISING COMPOUND CONTAINING AN IMIDAZOPYRIDINE STRUCTURE AS ACTIVE INGREDIENT” (ESGELBIO INC., priority 2021, published 2024).
